Assay results from paper PMC13055374, “Engineered antimicrobial-derived peptides to manipulate mixed microbial systems” (Microbiology Spectrum, 2026).
No end group written: not given here. *: point of attachment. FITC = O=C1OC2(c3ccc(O)cc3Oc3cc(O)ccc32)c2ccc(NC(=S)*)cc21

How the values were obtained:
L. seeligeri [1] = type: cell-based, Listeria seeligeri; conditions: for antimicrobial activity of conjugated peptides: growth inhibition, Fig. S7 and S9
Method: To determine the potency of the purified pediocin PA-1, we generated kill curves against a range of target bacteria (Fig. 1C). The concentration range tested was 3 pM to 3 μM following 10-fold serial dilutions. […] This is in approximate agreement with the published potency of pediocin PA-1 ([46]). Though the molecular mass of pediocin PA-1 is expected to be 4.5 kDa, we observed the partially purified peptide to migrate with an apparent mass of ~12.5 kDa (Fig. 1B). However, subsequent analysis by LC-MS yielded peaks of multiple m/z with the predominant peak at the expected molecular size of 4.6 kDa (Fig. S4). The purified pediocin PA-1, separated on denaturing but non-reducing SDS-PAGE (since this bacteriocin contains two crucial disulfide bonds), was subjected to agar-overlay assay using L. seeligeri as the indicator organism (Fig. S5).
The antimicrobial spectrum of pediocin PA-1 was assayed using a kill curve. Cultures grown overnight were resuspended in fresh medium at an OD600 of 0.05. EC50 was determined by incubating cells with varying concentrations of pediocin in a 96-well plate, and growth was measured at 600 nm after 24 h.
Figure S7. Growth inhibition of L. seeligeri by modified and unmodified pediocin PA-1.

Enterococcus faecium = test: Cell-binding assay by flow cytometry; conditions: pH 6.0, Fig. 3C
Method: (§1) The binding affinity and avidity of pediocin to various gram-positive and gram-negative bacteria were studied using flow cytometry. Late log-phase cells were washed in the sodium phosphate buffer (5 mM, pH 6.0) and resuspended at an OD600 of 10^–3 in sodium-acetate buffer (25 mM, pH 4.0), sodium phosphate buffer (5 mM, pH 6.0), or sodium phosphate buffer (5 mM, pH 7.4) containing 1% bovine serum albumin (BSA) and 100 mM NaCl. Cells were incubated with varying concentrations of the conjugated peptide at 4°C for 30 min. The unbound peptide was removed by centrifugation, and the pellet was resuspended in its respective binding buffer containing 1% BSA. Flow cytometry was performed on an Attune NxT flow cytometer (Life Technologies/ThermoFisher Scientific, Carlsbad, CA). Data (≥10^4 events were recorded) were recorded using a […] (488 nm) at a voltage of 360 V, and gating was performed on an SSC-A versus SSC-H plot to reduce false events.

L. cremoris = test: Cell-binding assay by flow cytometry; set-up: species or system Lactococcus cremoris; conditions: pH 6.0, flow cytometry, 4°C, 30 min; read-out: apparent KD
Method: as §1

L. seeligeri [2] = test: Cell-binding assay by flow cytometry; set-up: species or system Listeria seeligeri; conditions: for pH dependence of binding: pH 4.0, 6.0 and 7.4, Fig. S10
Method: as §1

L. plantarum = test: Cell-binding assay by flow cytometry; set-up: species or system Lactiplantibacillus plantarum; conditions: pH 6.0, Fig. 3C
Method: as §1

L. seeligeri [3] = test: Inhibition of the activity of full-length unmodified synthetic pediocin by truncated FITC peptides (growth inhibition curve); type: cell-based, Listeria seeligeri; conditions: Fig. S9
Excerpt: Despite similar primary structures, the pediocin-like bacteriocins differ in their target cell specificity (i.e., they differ in their antimicrobial spectra) ([49]). By determining the target cell specificity of hybrid bacteriocins containing N- and C-terminal regions from different pediocin-like bacteriocins, it has been shown that the C-termini of these bacteriocins determine target cell specificity ([49], [50]). […] Taking a cue from these studies, we proceeded to investigate whether fragments of pediocin PA-1 could serve as tags to specifically label pediocin-sensitive species without killing them. These could serve as tools to isolate target microorganisms from mixed samples. To this end, we synthesized fluorescein isothiocyanate (FITC)-conjugated versions of pediocin PA-1, a 15-mer (K20–A34) and an extended 30-mer fragment (S15–K43; Fig. S8). We first tested the bioactivity profile of FITC-conjugated pediocin and its fragments. […] Though the inactivity of 15-mer and 30-mer is expected, the loss of activity of pediocin-FITC conjugate could indicate the steric hindrance due to the fluorophore at the N-terminal, which is known to be critical for cell attachment ([53]). To test if this is due to the synthesis of the FITC-conjugate, we conjugated biotin, 7-nitrobenz-2-oxa-1,3-diazole (NBD), and Atto488 to the synthetic pediocin using EDC–NHS coupling (Fig. S6). […]

[4] = test system: L. seeligeri in a synthetic community; test: Binding assay in the mixed community: FACS depletion of FITC-labeled cells, 16S sequencing of the fluorescence-negative population; type: cell-based, Listeria seeligeri; conditions: before versus after sorting; pH 6.0, 4°C, 30 min; Fig. 4B
Excerpt: We posited that the pediocin PA-1 characterized here could be a potential tool to modulate the abundance of specific species in an intact microbial community. To this end, we pursued two approaches: (i) using synthetic pediocin PA-1 to deplete specific species by killing and (ii) using FITC-conjugated pediocin PA-1 to deplete specific species by cell sorting. To deplete L. seeligeri by killing, we created a synthetic community of Lacticaseibacillus casei, L. plantarum, L. cremoris, E. faecium, and L. seeligeri and grew it for 2 h. We then split the culture into three parts to which we added 1 μM, 10 μM, or 0 (control) unmodified pediocin PA-1 (Lifetein), respectively. […] Next, we assessed the ability of FITC-conjugated pediocin (Ped-FITC) and its 15-mer version to deplete the target species through cell sorting. Again, we created a synthetic community containing L. seeligeri in abundance and assessed the proportion before and after fluorescence-activated cell sorting (FACS) of FITC-labeled cells. We attempted to sequence the fluorescence-positive population but were unsuccessful due to poor DNA yield. However, the genomic DNA isolated from the fluorescence-negative population indicated depletion of more than 50% in the proportion of L. seeligeri from the synthetic community (Fig. 4B). […]

L. coryniformis = test: Cell-binding assay by flow cytometry; set-up: species or system Lactobacillus coryniformis
Method: as §1

Bacillus subtilis = test: Cell-binding assay by flow cytometry; conditions: pH 6.0, at the highest concentration (30 μM) tested
Method: as §1

Row | Substance | antimicrobial activity of conjugated peptides (L. seeligeri [1]) | binding (Enterococcus faecium) | Kd (L. cremoris) [µM] | pH dependence of binding (L. seeligeri [2]) | binding (L. plantarum) | ability to inhibit the activity of the full-length unmodified synthetic pediocin (L. seeligeri [3]) | depletion in the proportion of L. seeligeri, fluorescence-negative population after FACS [4] | binding (L. seeligeri [2]; pH 6.0, Fig. 3) | increase of EC50 relative to the unmodified peptide (L. seeligeri [1]; kill curve, Fig. S7) [fold] | maximum fluorescence (L. coryniformis; flow cytometry) | binding under acidic conditions (L. coryniformis; Fig. S10) | binding (Bacillus subtilis) | Kd (L. seeligeri [2]; pH 6.0, flow cytometry, 4°C, 30 min, read-out: apparent KD) [µM]
1 | 15-mer-FITC: FITC-conjugated 15-mer fragment (K20–A34) of pediocin PA-1 (KATTCIINNGAMAWA; also: FITC-conjugated (site not given here); UniProt P29430 38-52, looked up, fragment) | completely abolished | modest binding | 38 ± 4.7 | higher MFI at higher pHs | modest binding | unable to do so | more than 50% | – | – | – | – | – | –
2 | 30-mer-FITC: FITC-conjugated extended 30-mer fragment (S15–K43) of pediocin PA-1 (SVDWGKATTCIINNGAMAWATGGHQGNHK; also: FITC-conjugated (site not given here); UniProt P29430 33-61, looked up, fragment) | completely abolished | – | – | higher MFI at higher pHs | – | unable to do so | – | did not show appreciable binding | – | – | – | – | –
3 | Ped-488: purified biosynthetic pediocin conjugated to Atto488 using EDC–NHS chemistry (KYYGNGVTCGKHSCSVDWGKATTCIINNGAMAWATGGHQGNHKC; ends and bridges not checked; also: Atto488 conjugated by EDC–NHS chemistry (site not given here); UniProt P29430 19-62, looked up) | – | – | – | – | – | – | – | – | > 100 | 6,300 MFI | – | – | –
4 | Pediocin-FITC: synthesized fluorescein isothiocyanate (FITC)-conjugated full-length pediocin PA-1 ({FITC}-KYYGNGVTCGKHSCSVDWGKATTCIINNGAMAWATGGHQGNHKC; ends and bridges not checked; also: two disulfide bonds, pairing not given here; UniProt P29430 19-62, looked up) | completely abolished | – | – | strong binding to L. seeligeri at all the tested pHs | – | – | more than 50% | – | – | – | surprisingly poor binding | modest binding | 0.082 ± 0.011
